This note sets out measurements from article PMC8180025, “Antibacterial, antifungal and antioxidant activities of whole plant chemical constituents of Rumex abyssinicus” (BMC Complementary Medicine and Therapies, 2021).

Assay [1] concerns Shigella flexneri SDINT. The experiment in a line: Broth microdilution MIC/MMC. The following applies: for MMC/MIC / MMC: S. flexneri; for MMC: sub-culturing after broth microdilution; for MIC: Shigella flexneri. In general terms: In broth dilution the organism is exposed to a series of concentrations in liquid medium.
Assay [2] deals with Candida albicans ATCC10231. The experiment in a line: Broth microdilution MIC/MMC. The following applies: for MMC/MIC / MMC: C. albicans; for MMC: sub-culturing after broth microdilution; for MIC: Candida albicans, ATCC10231.
The subject of assay [3] is methicillin resistant S. aureus MRSA03. The experiment in a line: Broth microdilution MIC/MMC. The following applies: for MMC/MIC / MMC: MRSA03; for MMC: sub-culturing after broth microdilution; for MIC: Staphylococcus aureus.
The test system of assay [4] is Pseudomonas aeruginosa ATCC27853. The experiment in a line: Broth microdilution MIC/MMC. The following applies: for MMC/MIC / MMC: P. aeruginosa; for MMC: sub-culturing after broth microdilution; for MIC: Pseudomonas aeruginosa, ATCC27853.
Assay [5] has as its system Cryptococcus neoformans H99. The experiment in a line: Broth microdilution MIC/MMC. The following applies: for MMC/MIC / MMC: C. neoformans; for MMC: sub-culturing after broth microdilution; for MIC: Cryptococcus neoformans, H99.
The nature of assay [6]: DPPH free radical scavenging assay. The following applies: mean ± SD, triplicate. In kind it is biochemical. As for the experimental part:
The free radical scavenging activity of extracts and compounds was evaluated according to described methods. The EC50 (μg/ml), which is the amount of sample necessary to inhibit by 50% the absorbance of free radical DPPH was calculated. Vitamin C was used as a standard control. All the analyses were carried out in triplicate.
On the technique in general: Loss of DPPH colour is used to gauge radical scavenging.

Assay [7] deals with Staphylococcus aureus ATCC25923. The experiment in a line: Broth microdilution MIC/MMC. The following applies: for MMC/MIC / MMC: S. aureus; for MMC: sub-culturing after broth microdilution; for MIC: Staphylococcus aureus, ATCC25923.
Assay [8] can be described thus: Gallic acid equivalent antioxidant capacity (GEAC) assay. The class given is biochemical. The following applies: laccase/ABTS, 420 nm after 240 s; mean ± SD. As for the experimental part:
The GEAC test was done as previously described with slight modifications. In a quartz cuvette, to 950 μL acetate buffer (pH =5.0, 100 mM), the following were added: 20 μL laccase (1 mM stock solution), 20 μL test sample, 10 μL ABTS (2,2′-azinobis(3-ethylbenzothiazoline-6-sulfonic acid) (74 mM stock solution). The purification of laccase from Sclerotinia sclerotiorum was done according to the protocol described. The sample concentrations in the assay mixture were 800, 400, 200, 100, 10 μg/mL for the extracts and 200, 100, 50, 25, 12.5, 6.25, 3.125, 1.56 μg/mL for the isolated compounds. The content of the generated ABTS^●+ radical was measured at 420 nm after 240 s reaction time and was converted to gallic acid equivalents by the use of a calibration curve (Pearson’s correlation coefficient: r = 0.997) constructed with 0, 4, 10, 14, 28, 56, 84 μM gallic acid standards rather than Trolox. Experiments were done in triplicate.

The subject of assay [9] is methicillin sensitive S. aureus MSSA01. The experiment in a line: Broth microdilution MIC/MMC. The following applies: for MMC/MIC / MMC: MSSA01; for MMC: sub-culturing after broth microdilution; for MIC: Staphylococcus aureus.

Molecules are shown by their SMILES. In brackets after ≈: the same amount, converted by molar mass. Several values for one entry are separate records, joined by “and”; a condition that tells them apart may be missing. Identical values can stand only once. Marks after values point to notes of the source that are not given here.

The MIC is the lowest concentration that inhibits growth of the organism. Read a low MIC as greater potency. With `Cc1cc(O)c2c(c1)C(=O)c1cccc(O)c1C2=O` [Compound 1, Chrysophanol], the MMC/MIC in assay [1] is 1; in assay [2] it was 1; in [3], 2; in assay [4], 2; in assay [5] it was 1; in [7], 2. This compound also showed an MMC/MIC in [9] of 1. Moreover, the MMC was found to be 32 µg/mL in assay [1]; 64 µg/mL in [2]; 128 µg/mL in assay [3]; 128 µg/mL in assay [4]; 32 µg/mL in assay [5]; 64 µg/mL in assay [7]. The same compound registered an MMC in assay [9] of 64 µg/mL. The MIC was determined as 32 mg/L (≈ 126 µM) in assay [1]; 64 mg/L (≈ 252 µM) in assay [2]; 64 mg/L (≈ 252 µM) in assay [3]; 64 mg/L (≈ 252 µM) in assay [4]; 32 mg/L (≈ 126 µM) in assay [5]; 32 mg/L (≈ 126 µM) in assay [7]. This compound also showed a minimal inhibitory concentration (MIC) in [9] of 64 mg/L (≈ 252 µM). For the same compound, the “DPPH free radical scavenging activity (EC50)” value in assay [6] is 4.52 ± 0.36^d μg/mL. Besides, the “Gallic acid equivalent antioxidant capacity (GEAC)” value in assay [8] is listed as 104.87 ± 1.43^d μg/mL.

For the compound `CC(C)[C@@H](C)C=C[C@@H](C)[C@H]1CC[C@H]2[C@]3(O)C=CC4(O)CC(O)CC[C@]4(C)[C@H]3CC[C@]12C` (stereo partly drawn) [Compound 3, Ergosta-6,22-diene-3,5,8-triol], the MMC in [1] is >256 µg/mL; in assay [2], >256 µg/mL; in assay [3] it was >256 µg/mL; in assay [4], 256 µg/mL; in [5] it was 128 µg/mL; in assay [7], >256 µg/mL. The MMC in assay [9] was >256 µg/mL. Further, the MIC was 128 mg/L (≈ 297 µM) in assay [1]; 128 mg/L (≈ 297 µM) in assay [2]; > 256 mg/L in [3]; 128 mg/L (≈ 297 µM) in [4]; 64 mg/L (≈ 149 µM) in assay [5]; 256 mg/L (≈ 594 µM) in [7]. In [9], the minimum inhibitory concentration (MIC) was > 256 mg/L. The MMC/MIC in assay [4] and in assay [5] was 2 each time.

Consider `O=C1c2cc(O)cc(O)c2C(=O)c2c(O)cc(CO)cc21` [Compound 5, 6-hydroxyemodin (Citreorosein)], for which the MMC/MIC was determined as 1 in assay [1]; 2 in assay [2]; 2 in assay [3]; 2 in assay [4]; 2 in assay [5]; 1 in assay [7]. The MMC/MIC in assay [9] is 2. The MMC amounted to 32 µg/mL in assay [1]; 32 µg/mL in assay [2]; 256 µg/mL in [3]; 64 µg/mL in [4]; 32 µg/mL in assay [5]; 32 µg/mL in assay [7]. The compound also yielded an MMC in [9] of 256 µg/mL. The MIC in [1] is 32 mg/L (≈ 112 µM); in assay [2], 16 mg/L (≈ 55.9 µM); in assay [3], 128 mg/L (≈ 447 µM); in [4] it was 32 mg/L (≈ 112 µM); in assay [5], 16 mg/L (≈ 55.9 µM); in [7], 32 mg/L (≈ 112 µM). Further, in [9], the MIC is 128 mg/L (≈ 447 µM). In assay [6], the “DPPH free radical scavenging activity (EC50)” value is on record as 9.88 ± 0.62^f μg/mL. The “Gallic acid equivalent antioxidant capacity (GEAC)” value in assay [8] is 81.09 ± 0.93 μg/mL and 81.09 ± 0.93^e μg/mL.

As for `O=C1O[C@H]([C@@H](O)CO)C(O)=C1O` [Vitamin C, reference compound], in assay [6], the “DPPH free radical scavenging activity (EC50)” value is given as 1.81 ± 0.19^h μg/mL.

For `O=C(O)c1cn(C2CC2)c2cc(N3CCNCC3)c(F)cc2c1=O` [ciprofloxacin, Ciprofloxacin, reference compound], the MMC/MIC in [1], in assay [3], in assay [4], in assay [7] and in assay [9] was 1 throughout. The MMC in assay [1] turned out to be 8 µg/mL; in assay [3], 4 µg/mL; in assay [4], 0.5 µg/mL; in assay [7] it was 0.5 µg/mL; in [9] it was 4 µg/mL. Also, the MIC was 8 mg/L (≈ 24.1 µM) in assay [1]; 4 mg/L (≈ 12.1 µM) in assay [3]; 0.5 mg/L (≈ 1.51 µM) in [4]; 0.5 mg/L (≈ 1.51 µM) in assay [7]; 4 mg/L (≈ 12.1 µM) in assay [9].

In the case of `OC(Cn1cncn1)(Cn1cncn1)c1ccc(F)cc1F` [fluconazole, reference compound], in assay [2], the MMC/MIC was determined as 1, the MMC amounted to 1 µg/mL and the minimum inhibitory concentration (MIC) amounted to 1 mg/L (≈ 3.27 µM). Moreover, in assay [5], the MMC/MIC was determined as 1, the MMC worked out at 2 µg/mL and the minimum inhibitory concentration (MIC) amounted to 2 mg/L (≈ 6.53 µM).
